Data taken from ChEMBL document CHEMBL4311991, “Design, synthesis, and biological evaluation of 1-substituted -2-aryl imidazoles targeting tubulin polymerization as potential anticancer agents” (Eur J Med Chem, 2019).
In brackets after ≈: the same amount, converted by molar mass. Activity calls are given as the source filed them. No cut-off for these calls is given here.

Legend:
[1] = test system: MDA-MB-468; assay: Antiproliferative activity against human MDA-MB-468 cells assessed as reduction in cell viability after 72 hrs by MTT assay; type: functional, cell-based; conditions: MDA-MB-468, 72 h
[2] = test system: MDA-MB-231; assay: Antiproliferative activity against human MDA-MB-231 cells assessed as reduction in cell viability after 72 hrs by MTT assay; type: functional, cell-based; conditions: MDA-MB-231, 72 h
[3] = test system: T47D; assay: Antiproliferative activity against human T47D cells assessed as reduction in cell viability after 72 hrs by MTT assay; type: functional, cell-based
[4] = test system: HCT-15; assay: Antiproliferative activity against human HCT15 cells assessed as reduction in cell viability after 72 hrs by MTT assay; type: functional, cell-based; conditions: HCT-15, 72 h
[5] = test system: HT-29; assay: Antiproliferative activity against human HT-29 cells assessed as reduction in cell viability after 72 hrs by MTT assay; type: functional, cell-based; conditions: HT-29, 72 h
[6] = test system: HeLa; assay: Antiproliferative activity against human HeLa cells assessed as reduction in cell viability after 72 hrs by MTT assay; type: functional, cell-based
[7] = test system: HUVEC; assay: Cytotoxicity against HUVEC assessed as reduction in cell viability after 72 hrs by MTT assay; type: cell-based; conditions: Homo sapiens
[8] = target: T1, Tubulin (Sus scrofa) (UniProt P02554+P02550); assay: (§1) Inhibition of pig brain tubulin polymerization in presence of GTP by spectrophotometric analysis
[9] = target: Tubulin (Sus scrofa, UniProt P02554+P02550); assay: as §1
[10] = target: T1, Tubulin (Sus scrofa); assay: Inhibition of pig brain tubulin polymerization at 3 to 6 uM in presence of GTP by spectrophotometric analysis relative to control
[11] = species: Mus musculus; assay: Inhibition of tubulin polymerization in mouse B16F10 cells assessed as disruption of microtubule network at 400 nM incubated for 6 hrs by DAPI staining based confocal microscopy; type: cell-based
[12] = test system: MDA-MB-468; assay: Induction of cell cycle arrest in human MDA-MB-468 cells assessed as accumulation of cells at G2/M phase at IC50 concentration by propidium iodide staining-based flow cytometric analysis; type: functional; conditions: TDE = time-dependent effect
[13] = test system: MDA-MB-468; assay: Induction of apoptosis in human MDA-MB-468 cells assessed as viable cells at 100 nM after 24 hrs by Annexin-FITC/propidium iodide staining based flow cytometry (reference value: 96.8%); type: functional; conditions: MDA-MB-468, 24 h, read-out: Activity
[14] = test system: MDA-MB-468; assay: Induction of apoptosis in human MDA-MB-468 cells assessed as early apoptotic cells at 100 nM after 24 hrs by Annexin-FITC/propidium iodide staining based flow cytometry (reference value: 0.35 to 1.25%); type: functional
[15] = test system: MDA-MB-468; assay: Induction of apoptosis in human MDA-MB-468 cells assessed as late apoptotic cells at 100 nM after 24 hrs by Annexin-FITC/propidium iodide staining based flow cytometry (reference value: 1.03 to 1.59%); type: functional
[16] = test system: MDA-MB-468; assay: Induction of apoptosis in human MDA-MB-468 cells assessed as necrotic cells at 100 nM after 24 hrs by Annexin-FITC/propidium iodide staining based flow cytometry (reference value: 0.97 to 1.29%); type: functional
[17] = test system: MDA-MB-468; assay: Induction of apoptosis in human MDA-MB-468 cells assessed as viable cells at 100 nM after 48 hrs by Annexin-FITC/propidium iodide staining based flow cytometry (reference value: 96.8%); type: functional; conditions: MDA-MB-468, 48 h, read-out: Activity
[18] = test system: MDA-MB-468; assay: Induction of apoptosis in human MDA-MB-468 cells assessed as early apoptotic cells at 100 nM after 48 hrs by Annexin-FITC/propidium iodide staining based flow cytometry (reference value: 0.35 to 1.25%); type: functional
[19] = test system: MDA-MB-468; assay: Induction of apoptosis in human MDA-MB-468 cells assessed as late apoptotic cells at 100 nM after 48 hrs by Annexin-FITC/propidium iodide staining based flow cytometry (reference value: 1.03 to 1.59%); type: functional
[20] = test system: MDA-MB-468; assay: Induction of apoptosis in human MDA-MB-468 cells assessed as necrotic cells at 100 nM after 48 hrs by Annexin-FITC/propidium iodide staining based flow cytometry (reference value: 0.97 to 1.29%); type: functional
[21] = test system: MDA-MB-468; assay: Induction of apoptosis in human MDA-MB-468 cells assessed as viable cells at 100 nM after 72 hrs by Annexin-FITC/propidium iodide staining based flow cytometry (reference value: 96.8%); type: functional; conditions: MDA-MB-468, 72 h, read-out: Activity
[22] = test system: MDA-MB-468; assay: Induction of apoptosis in human MDA-MB-468 cells assessed as early apoptotic cells at 100 nM after 72 hrs by Annexin-FITC/propidium iodide staining based flow cytometry (reference value: 0.35 to 1.25%); type: functional
[23] = test system: MDA-MB-468; assay: Induction of apoptosis in human MDA-MB-468 cells assessed as late apoptotic cells at 100 nM after 72 hrs by Annexin-FITC/propidium iodide staining based flow cytometry (reference value: 1.03 to 1.59%); type: functional
[24] = test system: MDA-MB-468; assay: Induction of apoptosis in human MDA-MB-468 cells assessed as necrotic cells at 100 nM after 72 hrs by Annexin-FITC/propidium iodide staining based flow cytometry (reference value: 0.97 to 1.29%); type: functional
[25] = Retention time of the compound using acetonitrile:water at ratio of 50:50 as mobile phase by reverse-phase HPLC analysis; type: physicochemical; conditions: buffer
[26] = Aqueous solubility of the compound at 1 mg/ml after 24 hrs by shake flask method based HPLC analysis; type: physicochemical
[27] = 1-Octanol/water partition coefficient, log P of compound at 1 mg after 1 hr by HPLC analysis; type: physicochemical
[28] = test system: MDA-MB-468; assay: Antitumor activity against human MDA-MB-468 cells xenografted in nude mouse assessed as tumour growth inhibition at 30 mg/kg, ip administered every other day for 21 days relative to control; type: functional; conditions: MDA-MB-468, ip, 504 h, read-out: TGI
[29] = test system: MDA-MB-468; assay: Antitumor activity against human MDA-MB-468 cells xenografted in nude mouse assessed as tumour growth inhibition at 60 mg/kg, ip administered every other day for 21 days relative to control; type: functional; conditions: MDA-MB-468, ip, 504 h, read-out: TGI
[30] = Toxicity in nude mouse xenografted with human MDA-MB-468 cells assessed as effect on body weight at 30 to 60 mg/kg, ip administered every other day for 21 days; type: organism-based; conditions: in vivo, 504 h
[31] = Ratio of compound aqueous solubility to CA-4 aqueous solubility at 1 mg/ml after 24 hrs by shake flask method based HPLC analysis; type: physicochemical; conditions: buffer
[32] = species: Mus musculus; assay: Inhibition of tubulin polymerization in mouse B16F10 cells assessed as disruption of microtubule network at 200 nM incubated for 6 hrs by DAPI staining based confocal microscopy; type: cell-based

T1 sequence (P02550 whole entry, looked up): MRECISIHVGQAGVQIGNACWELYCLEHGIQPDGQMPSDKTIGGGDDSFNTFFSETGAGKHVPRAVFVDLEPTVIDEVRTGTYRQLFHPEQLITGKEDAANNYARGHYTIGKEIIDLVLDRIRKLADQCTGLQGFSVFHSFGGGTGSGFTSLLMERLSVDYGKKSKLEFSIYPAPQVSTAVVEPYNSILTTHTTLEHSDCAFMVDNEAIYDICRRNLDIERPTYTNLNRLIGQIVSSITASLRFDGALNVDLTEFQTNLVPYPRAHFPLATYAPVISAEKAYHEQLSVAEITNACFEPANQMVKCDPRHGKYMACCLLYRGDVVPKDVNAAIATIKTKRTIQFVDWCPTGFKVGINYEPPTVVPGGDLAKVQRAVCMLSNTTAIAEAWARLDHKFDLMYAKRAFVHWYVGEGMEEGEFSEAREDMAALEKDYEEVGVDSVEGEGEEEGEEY
T1 sequence (P02554 whole entry, looked up): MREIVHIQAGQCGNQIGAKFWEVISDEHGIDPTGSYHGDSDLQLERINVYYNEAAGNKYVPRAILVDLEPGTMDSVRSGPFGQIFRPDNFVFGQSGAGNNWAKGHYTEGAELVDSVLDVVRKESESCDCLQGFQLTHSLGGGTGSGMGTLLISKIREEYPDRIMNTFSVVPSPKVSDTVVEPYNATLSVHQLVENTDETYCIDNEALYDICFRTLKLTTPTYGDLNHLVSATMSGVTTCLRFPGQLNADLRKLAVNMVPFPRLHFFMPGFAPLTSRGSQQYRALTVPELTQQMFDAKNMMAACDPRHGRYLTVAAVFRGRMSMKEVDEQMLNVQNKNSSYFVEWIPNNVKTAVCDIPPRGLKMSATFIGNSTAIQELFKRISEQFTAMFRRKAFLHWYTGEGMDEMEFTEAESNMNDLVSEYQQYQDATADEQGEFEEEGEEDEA

Structure (SMILES) | IC50 [1] [nM] | IC50 [2] [nM] | IC50 [3] [nM] | IC50 [4] [nM] | IC50 [5] [nM] | IC50 [6] [nM] | IC50 [7] [nM] | Activity [12] | viability at 0.1 µM [13] [%] | Activity [14] [%] | Activity [15] [%] | Activity [16] [%] | viability at 0.1 µM [17] [%] | Activity [18] [%] | Activity [19] [%] | Activity [20] [%] | viability at 0.1 µM [21] [%] | Activity [22] [%] | Activity [23] [%] | Activity [24] [%] | also measured
COc1ccc(-n2ccnc2-c2cc(OC)c(OC)c(OC)c2)cc1N | 90 | 1040 | 500 | 100 | 200 | 80 | 58500 | Tde | 94.5 | 0.38 | 3.56 | 1.51 | 79.6 | 1.18 | 15 | 4.19 | 72.3 | 1.53 | 22.9 | 3.27 | inhibition [8]: Dose-dependent effect; IC50 [9]: 400 nM; inhibition [10]: 100%; inhibition [11]: Active; Retention_time [25]: 5 min; solubility thermodynamic at 24 h [26]: 36.7 µg/mL (≈ 103 µM); logP at 1 h [27]: 1.77; inhibition in vivo at 30 mg/kg [28]: 48%; inhibition in vivo at 60 mg/kg [29]: 77%; Activity [30]: Non-Toxic; Ratio [31]: 13
COc1ccc(/C=C\c2cc(OC)c(OC)c(OC)c2)cc1O [COMBRETASTATIN A4] | 6.5 | 13.5 | 14.6 | 3.2 | 30.5 | 9.2 | > 100000 | Tde | 79.2 | 1.44 | 15.7 | 3.67 | 60 | 0.84 | 31.9 | 7.2 | 33.4 | 1.84 | 55.3 | 9.4 | inhibition [32]: Active; Retention_time [25]: 12.5 min; inhibition in vivo at 60 mg/kg [29]: 87.5%
